Experimental data from patent US20250108100A1, “C-TERMINAL FRAGMENT OF APOLIPOPROTEIN E AND APPLICATION THEREOF IN INHIBITING y-SECRETASE ACTIVITY” (SYNPHATEC (SHANGHAI) BIOPHARMACEUTICAL TECHNOLOGY CO., LTD., priority 2022, published 2025).

Legend:
[1] = system: ADAM10, BACE1, PS1 and PS2; assay: mRNA (qRT-PCR) and protein (Western blot) expression of APP secretases in HEK 293T cells; format: cell-based, human; settings: qRT-PCR and Western blot, vs GFP control
Description: • a) A plasmid expressing the target protein in mammalian cells was constructed, and the protein expression promoter is CAG. • b) The target protein was expressed in HEK 293T cell line. Cells were subcultured one day before transfection, and transfection was performed when the degree of cell adhesion reached 70%-80%. The transfection reagent was lipofectamine2000 (ThermoFisher). • c) 4-6 hours post transfection, the medium were replaced with fresh cell culture medium. • d) 36-48 hours post transfection, the cells were lysed (10% 1M tris-HCl (pH=6.8), 4% SDS, 20% glycerol, 0.01% bromophenol blue), and the protein samples were collected and used for Western blot or stored in a −80° C. freezer. • e) Polyacrylamide gel electrophoresis. Before protein loading, the protein was boiled at 98° C. for 10 min, and then centrifuged at 12000 rpm for 10 min. Electrophoresis: 80V for the upper stacking gel; 120V for the lower separating gel. • f) Protein transfer. […]
Quantitect SYBR-Green qRT-PCR kit from Qiagen was used to quantitatively analyze the relative content of mRNA. qRT-PCR primers were listed in Table 2. […]

5×FAD mice = assay: Distribution of neuronally expressed ApoE around amyloid plaques in 5×FAD mice (immunofluorescence); format: in vivo, mouse; settings: lentiviral vectors
Description: Mice were anesthetized with isoflurane and perfused with 4% PFA. Dissected mouse brains were fixed overnight in 4% PFA and cryoprotected overnight in 30% sucrose. A cryostat (Leica CM3050S) was used to obtain frozen brain slices ([…]) from fixed and cryoprotected mouse brains. Floating slices were washed 3 times with 1×PBS and then permeabilized with 0.5% Triton-X in 1×PBS for 30 minutes. After blocking with 5% BSA in 1×PBS at room temperature for 1 h, the slices were incubated overnight at 4° C. in 5% BSA (in 1×PBS) buffer comprising the primary antibody. Slices were washed 3 times with 1×PBS and incubated with secondary antibody diluted in 5% BSA (1×PBS) buffer for 1 hour at room temperature. Samples were then washed 3 times with 1×PBS and mounted with Prolong Gold Antifade Mountant (Life Technology).
After being deeply anesthetized with isoflurane, mice (5 weeks old) were placed in a stereotaxic apparatus (RWD Instruments). The zero point (x, y, z, 0, 0, 0) is Bregma. Lentivirus (lentivirus-GFP, lentivirus-ApoE and lentivirus-ApoE-IRES-GFP) and AAV (AAV2/9-hSyn-EGFP-WPRE-pA and AAV2/9-hSyn-ApoECT; purchased from Shanghai Taitool Bioscience Co. Ltd.) were injected into the cortex (x, y, z, +/−1.6, 0, −1) or hippocampus (x, y, z, +/−1.5, −2, −1.5), injected 1 ul on each injection site. The mice were then returned to their cages for rehabilitation after surgery.

## ApoE2: human apolipoprotein E2, full-length 299 amino acid residues, SEQ ID NO: 12
[1]
  mRNA and protein expression of ADAM10, BACE1, PS1 and PS2: not altered
5×FAD mice
  accumulation around amyloid plaques: a similar distribution pattern was detected around amyloid plaques
